Measurements taken from US12215106B2, “Pharmaceutical compounds and therapeutic methods” (RUTGERS, THE STATE UNIVERSITY OF NEW JERSEY, priority 2018, dated 2025).
Counter-ions that a name gives are not always drawn.

Experiments:
[1] = Bi-directional Caco-2 transport assay; type: in vitro ADME; conditions: human; for Papp at 90 min, 5 μM: Caco-2; for Papp A→B at 90 min, 5 μM / Papp B→A at 90 min, 5 μM: Caco-2, pH 7.4
Protocol: (§1) The objective of the study is to evaluate test compounds as substrates for efflux transporter using Caco-2 cell line. To assess the functionality of P-glycoprotein (P-gp), loperamide was run as a positive control (Apical and basolateral HBSS pH 7.4).
(§2) 5 mM DMSO stock of test compounds and loperamide was diluted 1000-folds in HBSS having 0.1% DMSO to prepare concentrations of 5 μM.
(§3) Caco-2 cells were grown in DMEM (20% FBS) until 85-90% confluence. After attaining required confluence, cells were trypsinized and seeded into 24 well millcell plates at a density of 0.6×10^5 cells/insert. The plates were maintained for 21 days at 37° C. in CO2 incubator with change of medium every alternative day. Monolayer integrity was monitored by measuring Trans-epithelial electrical resistance (TEER) from day 15.
(§4) Caco-2 cell monolayer was washed twice with HBSS and incubated for 40 min in CO2 incubator. TEER values were measured and wells showing TEER values above 230 ohms·cm^2 were taken for experiments. The study was performed in loperamide and test compounds by adding 400 μL of loperamide prepared in HBSS in apical (A-B transport) followed by addition of 800 μL of HBSS on basal side and for B-A transport 800 μL of loperamide prepared in HBSS was dosed in basal followed by addition of 400 μL HBSS on apical side. At selected time points (0, 15, 30, 60 and 90 mins) an aliquot of 50 μL was collected from the receiver compartment for determination of test compound concentrations. The volume withdrawn was replaced immediately with HBSS buffer. TEER was measured at the end to the experiment to confirm any damage of monolayer while performing experiment. Those wells with TEER not meeting the criteria were excluded from the study.
(§5) A 50 μL of test compound samples collected at respective time points and submitted for LC-MS/MS analysis.
(§6) The apparent permeability (Papp) (A−B & B−A) of test compounds and positive control was calculated using the following formula: Papp=dQ/dt/A·Co where, dQ/dt=linear slope of test compound concentration in receptor chamber with time (0, 15, 30, 60 and 90 min) after correcting for dilution; A=area of the filter (0.7 cm^2); and Co=initial concentration of compound in the donor compartment.
(§7) Efflux ratio (RE) was calculated using the following equation: RE=PB/A/PA/B where PB/A and PA/B represent the apparent permeability of test compound from the basal to apical and apical to basal side of cell monolayer.
(§8) Recovery represents: (amount of the compound recovered from donor at end of incubation+cumulative amount of compound in acceptor at end of incubation+amount of the compound in cell lysate or assay well)/amount of compound in donor solution at time zero*100
(§9) Compounds are classified based on Papp values as follows:
(§10) A compound having efflux ratio of >2 is considered as having potential as a P-gp substrate.

[2] = test system: P-gp; experiment: Bi-directional Caco-2 transport assay; type: in vitro ADME; conditions: human, Caco-2, Efflux Ratio (B-A/A-B)
Protocol: as §1, §2, §3, §4, §5, §6, §7, §8, §9, §10

[3] = Toxicity in preclinical mouse models; type: in vivo
[4] = test system: GBM cells; experiment: Cell viability dose response in GBM cells (Vi-CELL, CellTiter-Glo); type: cell-based; conditions: compared with controls (DMSO and Temozolomide)
Protocol: Small molecules were synthesized by the Molecular Design and Synthesis laboratory, Rutgers Translational Sciences at Rutgers University, NJ, USA. To compare the effects of Exemplary Compound 14 to Comparative Example 100, cells (3×10^5/well) were seeded into the 96-well tissue culture plates and treated with different BMI1 inhibitors (from 10 nM to 10 μM) in appropriate media. Dose response curves were generated upon exposing GBM cells to different concentrations of Exemplary compound 14, Comparative Example 101, and Comparative Example 100 (0.010-10 μM) for 72 hours. Cells were counted using Beckman Coulter Vi-CELL Cell Viability Analyzer, and cell viability was confirmed by CellTiter-Glo Luminescent Cell Viability Assay (Promega, Madison, WI, USA) according to standard protocols and analyzed with a Victor 2 plate reader (Wallac, Turku, Finland). We then assessed the selectivity and potency in GBM cells vs primary GBM. Dose-response curves were generated in both spheres and monocultures and used to determine a sphere selectivity ratio (targeting Glioblastoma Initiating Cells), defined as EC50(U87)/EC50(spheres), for each compound.

## Cc1nc2ccccn2c1-c1csc(Nc2ccc3c(c2)OC(F)(F)O3)n1 [Compound 16, N-(2,2-difluorobenzo[d][1,3]dioxol-5-yl)-4-(2-methylimidazo[1,2-a]pyridin-3-yl)thiazol-2-amine hydrochloride]
[1]
  Papp at 90 min, 5 μM: 3 to 15 ×10⁻⁶ cm/s
  Papp A→B at 90 min, 5 μM: 14 ± 3.3 ×10⁻⁶ cm/s
  Papp B→A at 90 min, 5 μM: 12.1 ± 0.1 ×10⁻⁶ cm/s

## [2H]C1([2H])Oc2ccc(Nc3nc(-c4c(C)nc5ccccn45)cs3)cc2O1 [Compound 17, N-(benzo[d][1,3]dioxol-5-yl-2,2-d2)-4-(2-methylimidazo[1,2-c]pyridin-3-yl)thiazol-2-amine hydrochloride]
[1]
  Papp at 90 min, 5 μM: 3 to 15 ×10⁻⁶ cm/s
  Papp A→B at 90 min, 5 μM: 4.9 ± 0.8 ×10⁻⁶ cm/s
  Papp B→A at 90 min, 5 μM: 6.4 ± 0.6 ×10⁻⁶ cm/s
[2]
  efflux ratio at 90 min, 5 μM: < 2

## COc1c(F)cc(Nc2nc(-c3c(C)nc4ccccn34)cs2)cc1F [Compound 14, hydrochloride]
[3]
  toxicity in vivo: appear not to have toxicity in vivo
[4]
  sphere selectivity ratio EC50(U87)/EC50(spheres): high selectivity for glioblastoma cancer stem cells
